Data on nine molecules can be found in doi:10.1101/430959v1, “The chemistry and pharmacology of putative synthetic cannabinoid receptor agonist (SCRA) new psychoactive substances (NPS) 5F-PY-PICA, 5F-PY-PINACA, and their analogues” (biorxiv, 2018).

For experiment [1], the target named is T1, HA-hCB1 (Homo sapiens, UniProt P21554).
T1 construct: gene CNR1
The experiment can be described thus: [3H]SR141716A competition, membranes. It is filed as binding.

Experiment [2] concerns the target T2, human CB2 (AtT20-CB2) (Homo sapiens, UniProt P34972).
T2 construct: gene CNR2; full-length, stably transfected in mouse AtT20 cells
The experiment is described as follows: FLIPR membrane potential assay, AtT20 cells. It is filed as cell-based. From the text: FLIPR membrane potential assay, AtT20 cells on human CB2 (AtT20-CB2)

For experiment [3], the target named is T3, HA-hCB2 (Homo sapiens, UniProt P34972).
T3 construct: gene CNR2
T3 sequence (P34972 whole entry): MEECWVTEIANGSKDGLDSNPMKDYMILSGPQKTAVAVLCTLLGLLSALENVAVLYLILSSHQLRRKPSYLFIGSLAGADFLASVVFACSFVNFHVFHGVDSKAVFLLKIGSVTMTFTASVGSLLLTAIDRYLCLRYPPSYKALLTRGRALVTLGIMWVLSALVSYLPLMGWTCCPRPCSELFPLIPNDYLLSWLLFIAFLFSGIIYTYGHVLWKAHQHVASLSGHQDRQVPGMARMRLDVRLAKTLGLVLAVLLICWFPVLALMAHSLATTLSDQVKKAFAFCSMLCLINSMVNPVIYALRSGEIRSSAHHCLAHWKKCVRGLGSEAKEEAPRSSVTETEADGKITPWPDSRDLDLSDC
The experiment can be described thus: [3H]CP55, […] competition, membranes. The class given is binding.

Experiment [4] concerns the target T2, human CB2 (AtT20-CB2). The experiment can be described thus: cell-based. To be noted: for Emax: read-out: hCB2 Max (% CP 55,940); for EC50: read-out: hCB2 pEC50 (converted). Here is the method:
(§1) Mouse AtT20 neuroblastoma cells stably transfected with human CB1 or human CB2 have been previously described.[43] and were cultured in Dulbecco’s modified Eagle’s medium (DMEM) containing 10% fetal bovine serum (FBS), 100 U penicillin/streptomycin, and 80 μg/mL hygromycin (InvivoGen, San Diego, CA, USA). Cells were passaged at 80% confluency as required. Cells for assays were grown in 75 cm2 flasks and used at 90% confluence. The day before the assay cells were detached from the flask with trypsin/EDTA (Sigma) and resuspended in 10 mL of Leibovitz’s L-15 media supplemented with 1% FBS, 100 U penicillin/streptomycin and 15 mM glucose. The cells were plated in volume of 90 μL in black walled, clear bottomed 96-well microplates (Corning) which had been precoated with poly-L-lysine (Sigma, Australia). Cells were incubated overnight at 37 °C in ambient CO2. Membrane potential was measured using a FLIPR Membrane Potential Assay kit (blue) from Molecular Devices, as described previously.[46] The dye was reconstituted with assay buffer of composition (mM): NaCl 145, HEPES 22, Na2HPO4 0.338, NaHCO3 4.17, KH2PO4 0.441, MgSO4 0.407, MgCl2 0.493, CaCl2 1.26, glucose 5.56 (pH 7.4, osmolarity 315 ± 5). Prior to the assay, cells were loaded with 90 μL/well of the dye solution without removal of the L-15, giving an initial assay volume of 180 μL/well. Plates were then incubated at 37 °C at ambient CO2 for 45 min. Fluorescence was measured using a FlexStation 3 (Molecular Devices) microplate reader with cells excited at a wavelength of 530 nm and emission measured at 565 nm. Baseline readings were taken every 2 s for at least 2 min, at which time either drug or vehicle was added in a volume of 20 μL. The background fluorescence of cells without dye or dye without cells was negligible. Changes in fluorescence were expressed as a percentage of baseline fluorescence after subtraction of the changes produced by vehicle addition. The final concentration of DMSO was 0.1%. Data were analyzed with PRISM (GraphPad Software Inc., San Diego, CA), using four-parameter nonlinear regression to fit concentration-response curves. In all plates, a maximally effective concentration of CP 55,940 was added to allow for normalization between assays.

The target of experiment [5] is T4, human CB1 (AtT20-CB1) (Homo sapiens, UniProt P21554).
T4 construct: gene CNR1; full-length, stably transfected in mouse AtT20 cells
T4 sequence (P21554 whole entry): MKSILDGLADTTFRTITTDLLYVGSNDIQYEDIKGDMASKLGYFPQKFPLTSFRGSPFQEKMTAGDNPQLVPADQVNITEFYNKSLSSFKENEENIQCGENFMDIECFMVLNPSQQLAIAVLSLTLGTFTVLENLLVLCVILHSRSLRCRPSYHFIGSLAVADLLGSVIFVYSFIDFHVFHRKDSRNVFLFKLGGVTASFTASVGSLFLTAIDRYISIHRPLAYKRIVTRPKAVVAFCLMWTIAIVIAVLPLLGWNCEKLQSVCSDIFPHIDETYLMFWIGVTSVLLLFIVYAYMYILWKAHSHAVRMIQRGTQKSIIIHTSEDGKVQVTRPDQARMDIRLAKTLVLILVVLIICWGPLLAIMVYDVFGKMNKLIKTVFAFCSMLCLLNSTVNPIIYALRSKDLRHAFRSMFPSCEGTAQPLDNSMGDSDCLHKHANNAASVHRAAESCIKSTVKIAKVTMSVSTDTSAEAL
The experiment is described as follows: cell-based. Particulars: read-out: % activation. The protocol:
as §1

Experiment [6] has as its target T3, HA-hCB2. The experiment is described as follows: biochemical. More on the design: species or system HEK 293. To be noted: read-out: hCB2 pKi (converted).

Like-named read-outs stand apart in the source and are kept apart here.

T2 sequence (P34972 whole entry): as the sequence (P34972 whole entry) above
T1 sequence (P21554 whole entry): as the sequence (P21554 whole entry) above

With `O=C(c1cn(CCCCCF)c2ccccc12)N1CCCCC1` [compound 7, (1-(5-Fluoropentyl)-1H-indol-3-yl)(piperidin-1-yl)methanone], the results for the Ki in experiment [1] (read-out: pKi (converted)) and in experiment [3] (read-out: Ki) were above 10 µM and 0.363 µM, respectively. Also, the EC50 in experiment [2] (read-out: EC50) worked out at 0.0363 µM. Further, the Emax in experiment [4] stood at 64 ± 3%.

Consider `CCCCn1cc(C(=O)N2CCCC2)c2ccccc21` [compound 11, (1-Butyl-1H-indol-3-yl)(pyrrolidin-1-yl)methanone], for which the Ki in experiment [1] (read-out: pKi (converted)) and in experiment [3] (read-out: Ki) was above 10 µM in each case. Also, the activity at 10 µM in experiment [5] stood at 16 ± 9%. The Emax in experiment [4] amounted to 63 ± 9%. The EC50 in experiment [4] is 0.468 µM.

As to `O=C(c1cn(CCCCCF)c2ccccc12)N1CCCCCC1` [compound 8, Azepan-1-yl(1-(5-fluoropentyl)-1H-indol-3-yl)methanone], the Ki in experiment [1] (read-out: pKi (converted)) was above 10 µM; in experiment [3] (read-out: Ki), 0.102 µM. Also, the EC50 in experiment [2] (read-out: EC50) turned out to be 0.029 µM. Moreover, in experiment [4], the Emax stood at 72 ± 3%.

Turning to `CCN(CC)C(=O)c1cn(CCCCCF)c2ccccc12` [compound 9, 1-(5-Fluoropentyl)-N,N-diethyl-1H-indole-3-carboxamide], the Ki in experiment [1] (read-out: pKi (converted)) is above 10 µM; in experiment [3] (read-out: Ki), 1.02 µM. Moreover, the EC50 in experiment [2] (read-out: EC50) was found to be 0.137 µM. In experiment [5], the activity at 10 µM was found to be 0%. In addition, the Emax in experiment [4] was found to be 53 ± 4%.

Take `CCCCCn1cc(C(=O)N2CCCC2)c2ccccc21` [compound 12, (1-Pentyl-1H-indol-3-yl)(pyrrolidin-1-yl)methanone]: the Ki in experiment [1] (read-out: pKi (converted)) was above 10 µM. The Ki in experiment [6] was 3.24 µM. Besides, the activity at 10 µM in experiment [5] was 1 ± 3%. Besides, in experiment [4], the Emax came out at 54 ± 7% and the EC50 was 0.234 µM.

With `O=C(c1cn(CC2CCCCC2)c2ccccc12)N1CCCC1` [compound 14, (1-(Cyclohexylmethyl)-1H-indol-3-yl)(pyrrolidin-1-yl)methanone], in experiment [1] (read-out: pKi (converted)), the Ki is above 10 µM. Further, in experiment [6], the Ki was 1.07 µM. Further, in experiment [4], the Emax is 38 ± 3% and the EC50 was 0.135 µM.

As to `O=C(c1cn(CCCCCF)c2ccccc12)N1CCCC1` [compound 5, (1-(5-Fluoropentyl)-1H-indol-3-yl)(pyrrolidin-1-yl)methanone], the Ki is above 10 µM in experiment [1] and 1.74 µM in experiment [3]. The molecule further had an EC50 in experiment [2] of 0.338 µM. Further, in experiment [4], the Emax was found to be 50 ± 3%.

With `CN(C)C(=O)c1cn(CCCCCF)c2ccccc12` [compound 10, 1-(5-Fluoropentyl)-N,N-dimethyl-1H-indole-3-carboxamide], the Ki in experiment [1] (read-out: pKi (converted)) and in experiment [3] (read-out: Ki) was above 10 µM each time. The figures for the activity at 10 µM in experiment [5] and in experiment [4] (read-out: % activation) were 9 ± 4% and 11 ± 2%, respectively.

As for `O=C(c1cn(Cc2ccc(F)cc2)c2ccccc12)N1CCCC1` [compound 13, (1-(4-Fluorobenzyl)-1H-indol-3-yl)(pyrrolidin-1-yl)methanone], in experiment [1] (read-out: pKi (converted)), the Ki was above 10 µM. In experiment [6], the Ki was 3.55 µM. The activity at 10 µM in experiment [5] came out at 12 ± 2%. In experiment [4], the Emax worked out at 38 ± 13% and the EC50 is 0.363 µM.
